Laboratory results reported in patent publication US11325980B2, “Combination therapy using a LIV1-ADC and a chemotherapeutic” (SEATTLE GENETICS, INC., priority 2016, dated 2022).

System: MCF-7 cells
Experiment: In vivo tumor growth inhibition (TGI), MCF-7 cells implanted subcutaneously in NSG mice
Set-up: species or system NOD Scid Gamma (NSG) mice
Settings: for ranking of combinatorial benefit in vivo: combined with SGN-LIV1A, doses of Table 2, nab-paclitaxel 10 mg/kg; for Expected combination TGI: expected additive; for Combinatorial benefit: observed minus expected combination TGI; for TGI: single agent
Description: NOD Scid Gamma (NSG) mice were obtained from Jackson Laboratory and implanted with 17-β-estradiol pellet (Innovative Research of America; Sarasota, Fla.) one day prior to cell implant. Five million MCF-7 cells were implanted subcutaneously with Matrigel (BD Biosciences; Franklin Lakes, N.J.) and tumor volume was determined by a digital caliper twice a week, using the formula: volume=½×length width^2.
Mice received treatments when the average tumor volume reached 100 mm^3. The treatment regimen for each agent was: doxorubicin, 1 mg/kg q4dx3 intravenous (IV); SGN-LIV1, 1 mg/kg q4dx4 intraperitoneal (IP); […]; carboplatin 10 mg/kg q7dx3 IP; cyclophosphamide, 40 mg/kg q7dx3 IV; gemcitabine 20 mg/kg q7dx2 IP; and paclitaxel 10 mg/kg q3dx5 IP. Combination groups received the first dose of SGN-LIV1A and combination drug on the same day. n=6 for each group. The effects of each drug and their combination on tumor growth were plotted in FIGS. 6-8.
To determine the combined benefit in vivo, tumor growth inhibition (TGI) was compared using the area under the curve between untreated, single agent groups, and combined groups on the date the untreated animals were euthanized (Table 2). […] Thus, the expected additive TGI for combination is […].

[1] = named drug 10 mg/kg combined with 1 mg/kg SGN-LIV1A
[2] = named drug 40 mg/kg combined with 1 mg/kg SGN-LIV1A
[3] = named drug 1 mg/kg combined with 1 mg/kg SGN-LIV1A
[4] = dose 1 mg/kg, AUC vs untreated on the date untreated animals were euthanized
[5] = named drug 20 mg/kg combined with 1 mg/kg SGN-LIV1A

N.N.O=C([O-])C1(C(=O)[O-])CCC1.[Pt+2] [carboplatin]
ranking of combinatorial benefit in vivo: highest combinatorial benefit
Observed combination TGI [1]: 60%
Expected combination TGI [1]: 52%
Combinatorial benefit (named drug 10 mg/kg with 1 mg/kg SGN-LIV1A): 8%
TGI (dose 10 mg/kg, AUC vs untreated): 21%

O=P1(N(CCCl)CCCl)NCCCO1 (centres unmarked) [cyclophosphamide]
Observed combination TGI [2]: 39%
Expected combination TGI [2]: 45%
Combinatorial benefit (named drug 40 mg/kg with 1 mg/kg SGN-LIV1A): −6%
TGI (dose 40 mg/kg, AUC vs untreated): 10%

COc1cccc2c1C(=O)c1c(O)c3c(c(O)c1C2=O)C[C@@](O)(C(=O)CO)C[C@@H]3O[C@H]1C[C@H](N)[C@H](O)[C@H](C)O1 [doxorubicin]
ranking of combinatorial benefit in vivo: highest combinatorial benefit
Observed combination TGI [3]: 75%
Expected combination TGI [3]: 55%
Combinatorial benefit (named drug 1 mg/kg with 1 mg/kg SGN-LIV1A): 20%
TGI [4]: 26%

Nc1ccn([C@@H]2O[C@H](CO)[C@@H](O)C2(F)F)c(=O)n1 [gemcitabine]
Observed combination TGI [5]: 54%
Expected combination TGI [5]: 51%
combined effect in vivo (named drug 20 mg/kg when combined with SGN-LIV1A): nearly additive
Combinatorial benefit (named drug 20 mg/kg with 1 mg/kg SGN-LIV1A): 3%
TGI (dose 20 mg/kg, AUC vs untreated): 20%

B1: SGN-LIV1A: LIV-1-directed antibody-drug conjugate: humanized antibody hLIV22, valine-citrulline linker, monomethyl auristatin E; average of 4 MMAE per antibody (conjugate, chains of the INN, looked up)
VH: QVQLVQSGAEVKKPGASVKVSCKASGLTIEDYYMHWVRQAPGQGLEWMGWIDPENGDTEYGPKFQGRVTMTRDTSINTAYMELSRLRSDDTAVYYCAVHNAHYGTWFAYWGQGTLVTVSS
VL: DVVMTQSPLSLPVTLGQPASISCRSSQSLLHSSGNTYLEWYQQRPGQSPRPLIYKISTRFSGVPDRFSGSGSGTDFTLKISRVEAEDVGVYYCFQGSHVPYTFGGGTKVEIK
modifications: vedotin (vc-MMAE)
notes: LIV-1-directed antibody-drug conjugate: humanized antibody hLIV22, valine-citrulline linker, monomethyl auristatin E; average of 4 MMAE per antibody
TGI [4]: 39%
